# From patent US20260317324A1, “BIFUNCTIONAL COMPOUNDS FOR DEGRADING BRAF VIA UBIQUITIN PROTEOSOME PATHWAY” (Nurix Therapeutics, Inc., priority 2023, published 2026)
# Tests used:
# Assay type in all cases: cell-based
# BRAF D594G = biological target: T1, BRAF D594G (Homo sapiens, UniProt P15056, D594G); assay: BRAF HiBiT degradation assay, C-terminal HiBiT-tagged BRAF D594G overexpressed in HCT-116 BRAF−/− cells (clone 63), Nano-Glo HiBiT Lytic assay
# T1 construct: Horizon Discovery (HCT-116 BRAF−/− cells); host or cells: HCT-116 BRAF−/− cells, clone 63, lentiviral transduction
# T1 sequence (P15056 whole entry D594G): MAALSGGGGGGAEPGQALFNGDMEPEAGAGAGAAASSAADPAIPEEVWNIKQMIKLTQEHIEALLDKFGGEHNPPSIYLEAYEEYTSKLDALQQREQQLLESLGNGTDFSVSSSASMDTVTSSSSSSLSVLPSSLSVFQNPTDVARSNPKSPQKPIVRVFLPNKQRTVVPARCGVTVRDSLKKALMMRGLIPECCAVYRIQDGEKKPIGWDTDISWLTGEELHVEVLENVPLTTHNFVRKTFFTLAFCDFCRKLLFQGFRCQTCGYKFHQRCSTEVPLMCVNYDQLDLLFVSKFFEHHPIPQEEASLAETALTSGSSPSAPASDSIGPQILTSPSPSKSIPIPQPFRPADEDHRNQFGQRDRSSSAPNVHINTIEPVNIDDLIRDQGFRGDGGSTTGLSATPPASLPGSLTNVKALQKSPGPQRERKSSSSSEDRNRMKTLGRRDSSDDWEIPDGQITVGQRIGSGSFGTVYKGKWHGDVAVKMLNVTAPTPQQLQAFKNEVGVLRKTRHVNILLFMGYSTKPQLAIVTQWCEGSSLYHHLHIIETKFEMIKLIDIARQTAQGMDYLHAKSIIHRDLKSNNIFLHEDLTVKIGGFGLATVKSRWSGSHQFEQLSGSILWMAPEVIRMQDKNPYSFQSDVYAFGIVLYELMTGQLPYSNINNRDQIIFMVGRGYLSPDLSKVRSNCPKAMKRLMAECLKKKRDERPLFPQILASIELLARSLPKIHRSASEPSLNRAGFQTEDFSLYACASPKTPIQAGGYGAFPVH
# Summary of the method: (§1)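 First, the stable HiBiT-tagged cells were plated and incubated for 24 h. Next, compound was added in duplicate as an 11-point series with a 1 μM top concentration. Lytic detection followed, with DMSO-treated parental cells used for background. Finally, DC50 and Obs. Dmax relative to DMSO were derived from the % protein remaining curves.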
# BRAF G469A = biological target: T2, BRAF G469A (Homo sapiens, UniProt P15056, G469A); assay: BRAF HiBiT degradation assay, C-terminal HiBiT-tagged BRAF G469A overexpressed in HCT-116 BRAF−/− cells (clone 34), Nano-Glo HiBiT Lytic assay
# T2 construct: Horizon Discovery (HCT-116 BRAF−/− cells); host or cells: HCT-116 BRAF−/− cells, clone 34, lentiviral transduction
# T2 sequence (P15056 whole entry G469A): as the sequence (P15056 whole entry D594G) above, with G469A, G594D counted along it
# Summary of the method: as §1
# BRAF V600E = biological target: T3, BRAF V600E (Homo sapiens, UniProt P15056, V600E); assay: BRAF HiBiT degradation assay, C-terminal HiBiT-tagged BRAF V600E A375 cells (clone 1F10), Nano-Glo HiBiT Lytic assay; details: for Dmax: A-375
# T3 construct: endogenous C-terminal HiBiT fusion tag on BRAF V600E allele; endogenous in cells; host or cells: A375 clone 1F10 (CRISPR-Cas9 knock-in of the HiBiT tag; parental A375 from ATCC)
# T3 sequence (P15056 whole entry V600E, the tested form may be a part): as the sequence (P15056 whole entry D594G) above, with G594D, V600E counted along it
# Summary of the method: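 Degradation is measured as loss of HiBiT signal from BRAF V600E tagged at its native locus in A375 cells. Doses span 1 μM to 0.01 nM in half-log steps, in duplicate. Percent remaining is calculated against DMSO controls after subtracting untagged A375 background, and curve fitting yields DC50 and observed Dmax.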
# BRAF G466V = biological target: T4, BRAF G466V (Homo sapiens, UniProt P15056, G466V); assay: BRAF HiBiT degradation assay, C-terminal HiBiT-tagged BRAF G466V overexpressed in HCT-116 BRAF−/− cells (clone 8), Nano-Glo HiBiT Lytic assay
# T4 construct: Horizon Discovery (HCT-116 BRAF−/− cells); host or cells: HCT-116 BRAF−/− cells, clone 8, lentiviral transduction
# T4 sequence (P15056 whole entry G466V): as the sequence (P15056 whole entry D594G) above, with G466V, G594D counted along it
# Summary of the method: as §1
# [1] = BRAF D594G, DC50 at 50%: fitted conc. at Y=50
# [2] = HCT-116, BRAF D594G, percentage protein degraded at maximal compound effect relative to DMSO
# [3] = Class 2, BRAF G469A, DC50 at 50%: fitted conc. at Y=50
# [4] = HCT-116, Class 2, BRAF G469A, percentage protein degraded at maximal compound effect relative to DMSO
# [5] = A375 (BRAF V600E), DC50 at 50%: fitted conc. at Y=50
# [6] = A375 (BRAF V600E), percentage protein degraded at maximal compound effect relative to DMSO
# [7] = BRAF G466V, DC50 at 50%: fitted conc. at Y=50
# [8] = HCT-116, BRAF G466V, percentage protein degraded at maximal compound effect relative to DMSO
# [9] = BRAF D594G (Class 3), HCT-116 BRAF−/− cells, DC50 at 50% degradation
# [10] = BRAF D594G (Class 3), HCT-116 BRAF−/− cells, observed Dmax relative to DMSO control
# [11] = BRAF G469A (Class 2), HCT-116 BRAF−/− cells, DC50 at 50% degradation
# [12] = BRAF G469A (Class 2), HCT-116 BRAF−/− cells, observed Dmax relative to DMSO control
# [13] = A375 (BRAF V600E, Class 1), DC50 at 50% degradation
# [14] = A375 (BRAF V600E, Class 1), observed Dmax, % protein degraded relative to DMSO control
# [15] = BRAF G466V (Class 3), HCT-116 BRAF−/− cells, DC50 at 50% degradation
# [16] = BRAF G466V (Class 3), HCT-116 BRAF−/− cells, observed Dmax relative to DMSO control
DC50 (BRAF D594G; [1]) [nM],Dmax (BRAF D594G; [2]) [%],DC50 (BRAF G469A; [3]) [nM],Dmax (BRAF G469A; [4]) [%],DC50 (BRAF V600E; [5]) [nM],Dmax (BRAF V600E; [6]) [%],DC50 (BRAF G466V; [7]) [nM],Dmax (BRAF G466V; [8]) [%],DC50 (BRAF D594G; [9]) [nM],Dmax (BRAF D594G; [10]) [%],DC50 (BRAF G469A; [11]) [nM],Dmax (BRAF G469A; [12]) [%],DC50 (BRAF V600E; [13]) [nM],Dmax (BRAF V600E; [14]) [%],DC50 (BRAF G466V; [15]) [nM],Dmax (BRAF G466V; [16]) [%],SMILES
–,–,–,–,–,–,–,–,< 10,30 to 70,> 500,30 to 70,< 10,> 70,< 10,30 to 70,"O=C1CCN(c2ccc(N3CCC(CN4CCN(c5ccc(-n6cc(-c7cc(Cl)cc(NS(=O)(=O)N8CCCC8)c7F)c(-c7ccncc7)n6)c(F)c5)CC4)CC3)nc2)C(=O)N1 [Compound 370, N-[5-chloro-3-(1-{4-[4-({1-[5-(2,4-dioxo-1,3-diazinan-1-yl)pyridin-2-yl]piperidin-4-yl}methyl)piperazin-1-yl]-2-fluorophenyl}-3-(pyridin-4-yl)-1H-pyrazol-4-yl)-2-fluorophenyl]pyrrolidine-1-sulfonamide]"
< 10,30 to 70,10 to 50,30 to 70,< 10,> 70,< 10,30 to 70,–,–,–,–,–,–,–,–,"CCN(C)S(=O)(=O)Nc1cccc(-c2nc(C(C)(C)C)sc2-c2ccnc(Nc3ccc(N4CCN(C(=O)C5CCN(c6ccc(C7CCC(=O)NC7=O)cn6)CC5)CC4)cn3)n2)c1F (racemic) [Compound 56, Rac-(3R)-3-[6-(4-{4-[6-({4-[2-tert-butyl-4-(3-{[ethyl(methyl)sulfamoyl]amino}-2-fluorophenyl)-1,3-thiazol-5-yl]pyrimidin-2-yl}amino)pyridin-3-yl]piperazine-1-carbonyl}piperidin-1-yl)pyridin-3-yl]piperidine-2,6-dione]"
> 500,30 to 70,> 500,30 to 70,10 to 50,> 70,10 to 50,30 to 70,–,–,–,–,–,–,–,–,"CCCS(=O)(=O)Nc1cccc(-c2cn(-c3ccc(N4CCN(CC5CCN(c6ccc([C@@H]7CCC(=O)NC7=O)cc6)CC5)CC4)cc3)nc2-c2ccncc2)c1F [Compound 10, N-{3-[1-(4-{4-[(1-{4-[(3S)-2,6-dioxopiperidin-3-yl]phenyl}piperidin-4-yl)methyl]piperazin-1-yl}phenyl)-3-(pyridin-4-yl)-1H-pyrazol-4-yl]-2-fluorophenyl}propane-1-sulfonamide]"
> 500,30 to 70,> 500,< 30,10 to 50,> 70,> 500,30 to 70,–,–,–,–,–,–,–,–,"CCCS(=O)(=O)Nc1cccc(-c2nc(C(C)(C)C)sc2-c2ccnc(Nc3cccc(OC4CCN(CC[C@H]5CCN(c6ccc(C7CCC(=O)NC7=O)cn6)C5)CC4)c3)n2)c1F (mixture of isomers) [Compound 69, N-(3-{2-tert-butyl-5-[2-({3-[(1-{2-[(3S)-1-{5-[(3RS)-2,6-dioxopiperidin-3-yl]pyridin-2-yl}pyrrolidin-3-yl]ethyl}piperidin-4-yl)oxy]phenyl}amino)pyrimidin-4-yl]-1,3-thiazol-4-yl}-2-fluorophenyl)propane-1-sulfonamide]"

# Further lines, the compound ahead of its results:
SMILES,DC50 (BRAF D594G; [1]) [nM],Dmax (BRAF D594G; [2]) [%],DC50 (BRAF G469A; [3]) [nM],Dmax (BRAF G469A; [4]) [%],DC50 (BRAF V600E; [5]) [nM],Dmax (BRAF V600E; [6]) [%],DC50 (BRAF G466V; [7]) [nM],Dmax (BRAF G466V; [8]) [%],DC50 (BRAF D594G; [9]) [nM],Dmax (BRAF D594G; [10]) [%],DC50 (BRAF G469A; [11]) [nM],Dmax (BRAF G469A; [12]) [%],DC50 (BRAF V600E; [13]) [nM],Dmax (BRAF V600E; [14]) [%],DC50 (BRAF G466V; [15]) [nM],Dmax (BRAF G466V; [16]) [%]
"CCCS(=O)(=O)Nc1cccc(-c2nc(C(C)(C)C)sc2-c2ccnc(Nc3cccc(OC4CCN(C[C@H]5CC[C@H](Oc6ccc(C7CCC(=O)NC7=O)cc6)CC5)CC4)c3)n2)c1F (mixture of isomers) [Compound 72, N-(3-(2-(tert-butyl)-5-(2-((3-((1-(((1R,4r)-4-(4-((RS)-2,6-dioxopiperidin-3-yl)phenoxy)cyclohexyl)methyl)piperidin-4-yl)oxy)phenyl)amino)pyrimidin-4-yl)thiazol-4-yl)-2-fluorophenyl)propane-1-sulfonamide]",> 500,30 to 70,> 500,< 30,10 to 50,30 to 70,> 500,30 to 70,–,–,–,–,–,–,–,–
"C[C@@H]1CN(c2ccc(-n3cc(-c4cc(Cl)cc(NS(=O)(=O)N5CCCC5)c4F)c(-c4ccncc4)n3)cc2)CCN1CC1CCN(c2ccc([C@H]3CCC(=O)NC3=O)cc2)CC1 [Compound 316, N-[5-chloro-3-(1-{4-[(3R)-4-[(1-{4-[(3R)-2,6-dioxopiperidin-3-yl]phenyl}piperidin-4-yl)methyl]-3-methylpiperazin-1-yl]phenyl}-3-(pyridin-4-yl)-1H-pyrazol-4-yl)-2-fluorophenyl]pyrrolidine-1-sulfonamide]",–,–,–,–,–,–,–,–,< 10,30 to 70,10 to 50,> 70,< 10,> 70,< 10,> 70
"CCCS(=O)(=O)Nc1cc(Cl)cc(-c2cn(-c3ccc(N4CCN(CC5CCN(c6ccc(C7CCC(=O)NC7=O)cn6)CC5)[C@@H](C)C4)cc3)nc2-c2ccncc2)c1F (mixture of isomers) [Compound 279, N-[5-chloro-3-(1-{4-[(3S)-4-[(1-{5-[(3RS)-2,6-dioxopiperidin-3-yl]pyridin-2-yl}piperidin-4-yl)methyl]-3-methylpiperazin-1-yl]phenyl}-3-(pyridin-4-yl)-1H-pyrazol-4-yl)-2-fluorophenyl]propane-1-sulfonamide]",–,–,–,–,–,–,–,–,< 10,30 to 70,10 to 50,30 to 70,< 10,> 70,< 10,> 70
"CCC(C)S(=O)(=O)Nc1cc(Cl)cc(-c2cn(-c3ccc(N4CCN(CC5CCN(c6ccc([C@H]7CCC(=O)NC7=O)cc6)CC5)CC4)cc3)nc2-c2ccncc2)c1F (mixture of isomers) [Compound 330, (2RS)—N-{5-chloro-3-[1-(4-{4-[(1-{4-[(3R)-2,6-dioxopiperidin-3-yl]phenyl}piperidin-4-yl)methyl]piperazin-1-yl}phenyl)-3-(pyridin-4-yl)-1H-pyrazol-4-yl]-2-fluorophenyl}butane-2-sulfonamide]",–,–,–,–,–,–,–,–,< 10,30 to 70,10 to 50,30 to 70,< 10,> 70,< 10,> 70
"CCCS(=O)(=O)Nc1cccc(-c2nc(C3CCN(C(=O)C4CCN(C(=O)C5CCN(c6ccc(C7CCC(=O)NC7=O)cn6)CC5)CC4)CC3)sc2-c2ccncn2)c1F (racemic) [Compound 220, Rac-N-[3-(2-{1-[1-(1-{5-[(3R)-2,6-dioxopiperidin-3-yl]pyridin-2-yl}piperidine-4-carbonyl)piperidine-4-carbonyl]piperidin-4-yl}-5-(pyrimidin-4-yl)-1,3-thiazol-4-yl)-2-fluorophenyl]propane-1-sulfonamide]",< 10,30 to 70,> 500,30 to 70,< 10,> 70,10 to 50,30 to 70,–,–,–,–,–,–,–,–
"CCCS(=O)(=O)Nc1cccc(-c2nc(C(C)(C)C)sc2-c2ccnc(Nc3ccc(N4CCN(C(=O)C5CCN(c6ccc(C7CCC(=O)NC7=O)cc6)CC5)CC4)cc3)n2)c1F (racemic) [Compound 38, Rac-N-(3-{2-tert-butyl-5-[2-({4-[4-(1-{4-[(3R)-2,6-dioxopiperidin-3-yl]phenyl}piperidine-4-carbonyl)piperazin-1-yl]phenyl}amino)pyrimidin-4-yl]-1,3-thiazol-4-yl}-2-fluorophenyl)propane-1-sulfonamide]",> 500,30 to 70,10 to 50,< 30,< 10,> 70,> 500,< 30,–,–,–,–,–,–,–,–
"CCN(C)S(=O)(=O)Nc1cccc(-c2cn(-c3ccc(N4CCN(CC5CCN(c6ccc([C@H]7CCC(=O)NC7=O)cn6)CC5)CC4)cc3F)nc2-c2ccncc2)c1F [Compound 379, (3R)-3-(6-{4-[(4-{4-[4-(3-{[ethyl(methyl)sulfamoyl]amino}-2-fluorophenyl)-3-(pyridin-4-yl)-1H-pyrazol-1-yl]-3-fluorophenyl}piperazin-1-yl)methyl]piperidin-1-yl}pyridin-3-yl)piperidine-2,6-dione]",–,–,–,–,–,–,–,–,50 to 500,30 to 70,> 500,30 to 70,50 to 500,> 70,50 to 500,30 to 70
